US9975852B2, “Quinoline sulfonyl derivatives and uses thereof” (Health Sciences North Research Institute, priority 2013, dated 2018)

Key:
[1] = system: HeLa S3 cells; assay: Western blot, immunostaining and immunoprecipitation of cell cycle proteins, HeLa S3 cells; assay type: cell-based
Description: All immunocytochemistry experiments were visualized by confocal microscopy using a Zeiss 510 Meta laser scanning microscope (Carl Zeiss) equipped with a 63× objective lens, unless otherwise specified herein. Three lasers were utilized for excitation with the following band pass filter settings used for detection: Argon 488 nm (band pass 505-530), HeNe 543 nm (long pass 560) and 633 nm (long pass 650). All images were captured and analyzed using LSM 510 software included with the microscope (LSM Image Examiner™, Carl Zeiss).
The synchronization at the G1/S border (more accurately at the beginning of S phase) was achieved by double thymidine block (DT). Briefly, exponentially growing cells are treated with 2.0 mM thymidine for 18 hours, followed by incubation for 11 hours in drug-free complete medium, by which time most cells are at mid-late G1 phase. The cells are then incubated for another 14 hours in 2.0 mM thymidine to arrest them at the G1/S border. To arrest cells at the G2/M phase, cells were maintained for 18 hours in complete medium containing nocodazole (50 ng/ml). Both these synchronization are reversible.
Under the experimental conditions, some of the cells were still stuck at G2/M until 8 hour post-drug treatment. “Asynchr” denotes asynchronous cells. 0 hour is the end of nocodazole treatment (i.e., 18 hours in 50 ng/ml nocodazole). At 0 hour, cells were released into complete medium in the absence (control) or presence of 5 μM VR-23 for 2, 4, or 8 hours as indicated. […] Extracts prepared from HeLa S3 cells treated with VR-23 in early-S phase (0 hour post double thymidine treatment), G2/M (arrested by nocodazole), or late G1 (6 hour post nocodazole) were subjected to Western blotting with anti-PARP1 antibody to detect proteins associated with apoptotic activities.
Evaluation of apoptosis in VR-23 treated and untreated control cells (FIG. 8). Treatment of cells in late G1 with VR-23 delayed their progression into S phase. HeLa S3 cells arrested in G2-M phase by nocodazole (50 ng/ml, 18 hours) were incubated in drug-free complete medium for 2, 4 or 6 hours (numbers in brackets), followed by incubation for 2 or 6 hours (+h) in the absence (control) (FIG. 8A) or presence (FIG. 8B) of 10 μM VR-23. […] By (6)+6 hours, most of the control cells already progressed into S phase, but VR-23-treated cells were still in G1 (long and short arrows, respectively). […] Under normal growth conditions, cyclin E expression peaks in late G1 and rapidly levels off as a cell enters S phase, at which time cyclin A expression rapidly increases. […] Thus cells treated with VR-23 were still in G1 phase because cyclin E was not degraded and cyclin A was not induced in a timely manner.
HeLa S3 cells arrested at G1/S by DT were released into cell cycle for 1-3 hours in the absence (control) (FIG. 16A) or presence (FIG. 16B) of VR-23. Cells were then fixed and immunostained with antibodies specific for γ-tubulin and cyclin E, or DNA stained. […] In contrast, cyclin E was localized to the centrosomes by 3 hour post-DT in cells exposed to VR-23 (see inset boxes of FIG. 16B). […] It is noted that proteasomes are localized to the centrosomes^12,13.
HeLa S3 cells synchronized at the G1/S border by DT were released into cell cycle at time 0 hour. Cells were then allowed to progress through S phase for 1 hour (FIG. 17A) or 3 hours (FIG. 17B) in the absence (control) or presence of VR-23. Plk1 was not localized to the centrosome at 1 hour post-DT either in VR-23 treated or untreated control cells. However, unlike in the control, all of the (amplified) centrosomes in cells exposed to VR-23 contained Plk1 by 3 hour post-DT. It was occasionally observed that one of the two centrosomes in untreated cells also contained plk1 at 3 hour post-DT (dotted arrow).
HeLa S3 cells synchronized at G1/S by DT were released into normal growth medium at 0 hour for 1-3 hours in absence (control) (FIG. 18A) or the presence (FIG. 18B) of VR-23. […]

[2] = system: Jurkat; assay: SRB antiproliferative assay, Jurkat; assay type: cell-based; conditions: Homo sapiens
Procedure: Antiproliferative effects were determined by a sulforhodamine B (SRB) based protocol. For a typical screening experiment, 5,000-10,000 cells were inoculated into 100 μl medium per well of a 96-well microtiter plate as described previously. Briefly, after the inoculation, the microtiter plate was incubated at 37° C., 5% CO2, 95% air and 100% relative humidity for 24 h, prior to addition of experimental drugs. Some of the sample wells were fixed with 25 μl of 50% trichloroacetic acid (TCA) as a control of the cell population for each cell line at the time of drug addition (Tz). An aliquot of the frozen stock was thawed and diluted to the desired final maximum test-concentration with complete medium. […] The cells “stained” with SRB were solubilized with 10 mM trizma base, and the absorbance was read on an automated plate reader at a wavelength of 515-564 nm. The relative growth rate (%) was calculated for each of the compound concentrations according to the following formula: (Ti−Tz)/(C−Tz)×100 In the formula, time zero (Tz), control growth (C), and OD for different concentration of tested compounds (Ti). […] Values were calculated for each of these parameters if the level of activity was reached. However, if the effect was not reached or was exceeded, the value for that parameter was expressed as greater or less than the maximum or minimum concentration tested. […]

[3] = 10 μM VR-23 after nocodazole release
[4] = released from DT for 1-3 hours with VR-23

O=[N+]([O-])c1ccc(S(=O)(=O)N2CCN(c3ccnc4cc(Cl)ccc34)CC2)c([N+](=O)[O-])c1 [Compound 1, 7-Chloro-4-(4-(2,4-dinitrophenylsulfonyl)piperazin-1-yl)quinoline]
Levels of cyclins B and E ([1]; 10 μM VR-23, 2 hour post-treatment): higher in the VR-23 treated cells than the control
Levels of cyclin E and cyclin A (Western blot) ([1]; 10 μM VR-23, (6)+6 hours): a high level of cyclin E and a lack of detectable cyclin A
Cell cycle arrest (immunoprecipitation) [1, 3]: caused cell cycle arrest prior to mitotic checkpoint
Cell cycle arrest point and Cdk1 status [1, 3]: arrested at prometaphase through the inactivation of Cdk1
PARP1 cleavage (Western blot) ([1]; VR-23 in early-S, G2/M or late G1): showed PARP1 cleavage
Centrosomal localization of Plk4 [1, 4]: disrupted
Cyclin E localization [1, 4]: localized to the centrosome by 3 hour post-DT
Plk1 localization ([1]; released from DT for 1 or 3 hours with VR-23): localized to the centrosome by 3 hour post-DT
IC50 [2]: 800 ± 100 nM
